Measured values from article PMC7504435, “Combined Protein- and Ligand-Observed NMR Workflow to Screen Fragment Cocktails against Multiple Proteins: A Case Study Using Bromodomains” (Molecules, 2020).
Several values for one entry are separate records, joined by “and”; a condition that tells them apart may be missing. Equal entries are not always repeated.

Assays:
Format in all cases: binding
PfGCN5 bromodomain = PfGCN5 bromodomain (Plasmodium falciparum, UniProt Q8IB67); assay: biochemical
Protocol: (§1) The screening workflow consists of two dependent steps: 1) a PrOF NMR screen of the 5FW-labeled proteins and a cocktail of 4–5 fragments in a single NMR tube; 2) a ^1H CPMG NMR binding assay to deconvolute the hit mixtures for each protein (Figure 1). In the first step, a dual-protein PrOF NMR spectrum was obtained in which 5FW-PfGCN5, 5FW-BPTF (~ 50 µM each) and mixtures of fragments (400 µM individual fragment) were present in the same NMR tube. […] Chemical shift perturbations indicating a ligand binding event were based on a prior cutoff of Δδ ≥ 0.030 ppm as the definition for a hit mixture. This cutoff was based on a statistical analysis of chemical shift perturbations from a prior BRD4 D1 fragment screen and are described further in the experimental section and in Table S2.
(§2) PrOF NMR. PrOF NMR spectra were obtained on a Bruker Avance III HD 500 with the 5 mm Prodigy TCI inverse cryoprobe (^19F S:N 2000:1). […] The DMSO concentration for all experiments was kept constant at 1%. […] For the PrOF NMR screen, 5FW-BPTF and 5FW-PfGCN5 (35–40 µM in 50 mM phosphate, 100 mM NaCl, pH 7.4) were tested with mixtures of 4–5 fragments, where each individual fragment was 400 µM. […] A 10 Hz line broadening was applied. Titrations were fit to Equation (2), where p is the protein concentration and L is the ligand concentration. (2) Δδ=Δδmax × (Kd+P+L ) − (((Kd + P + L )^2) − 4PL)/2P
(§3) A PrOF NMR binding event is characterized as a change in chemical shift (Δδ) from the protein-only spectrum to the protein + fragment mixture spectrum. We used a prior cutoff of Δδ ≥ 0.030 ppm as the definition of a hit mixture, based on a statistical analysis of chemical shift perturbations from a prior BRD4 D1 fragment screen.

BPTF bromodomain [1] = biological target: T1, BPTF bromodomain (Homo sapiens, UniProt Q12830); assay: PrOF NMR (dual-protein screen of mixtures, titrations) with 5FW-BPTF; parameters: against the bromodomains of BPTF and Plasmodium falciparum GCN5 (PfGCN5); his6; made in house; conditions: hit mixture containing the fragment, 400 µM each fragment
Protocol: as §1, §2, §3

BPTF bromodomain [2] = biological target: T1, BPTF bromodomain; assay: Competition 1H CPMG NMR with BPTF; parameters: deconvolution of the hit mixtures using the non-fluorine-labeled bromodomains; made in house; host or cells: E. coli BL21(DE3)
Protocol: The competition ^1H CPMG NMR and PrOF NMR assays were employed to further probe the binding mode of 9 to PfGCN5.
^1H CPMG NMR. ^1H CPMG NMR screen data were acquired on Bruker Avance III HD 500 with the 5 mm Prodigy TCI cryoprobe inverse cryoprobe (^1H 2500:1 S/N). Competition ^1H CPMG NMR data were acquired on Bruker 700 MHz Avance with a CryoProbe 5 mm TXI (^1H S:N with H2O suppression (2mM sucrose) - 900:1) and excitation sculpting water suppression. Proteins were present at 10 µM in 50 mM phosphate, 100 mM NaCl, pH 7.4 in 100% D2O. In separate NMR tubes, a ^1H CPMG NMR pulse was applied to a 1) mixture of ligands (individual ligands present at 100 µM for the screen and 50 µM for competition experiments) and 2) ligands + protein. […] For the competition experiments, τ was increased to 4.0 ms.

Sequence of PfGCN5 bromodomain (Q8IB67 entry or part of it): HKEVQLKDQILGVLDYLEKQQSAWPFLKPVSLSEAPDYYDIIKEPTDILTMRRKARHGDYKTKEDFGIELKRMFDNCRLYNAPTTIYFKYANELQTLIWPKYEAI

With `Nc1ccc2c(c1)N(C(=O)C1CC1)CCC2` [Fragment 9] the “ligand efficiency (LE)” value (PfGCN5 bromodomain; PfGCN5, from Kd = 16 µM) was 0.43, the Kd (PfGCN5 bromodomain; PfGCN5 Kd, PrOF NMR titration, for 9 average of W1454 and W1379, NS = non-saturating) was 17 µM and 16 µM and the “Initial Mixture PfGCN5 PrOF NMR Δδ” value (PfGCN5 bromodomain; hit mixture containing the fragment, 400 µM each fragment) was “++++ (++++ = Δδ > 0.2)”. For the same compound, the “selectivity, binds PfGCN5 over BPTF” value (PfGCN5 bromodomain; ratio of Kd values) was 9 fold, the “Initial Mixture BPTF PrOF NMR Δδ” value (BPTF bromodomain [1]) was “++++ (++++ = Δδ > 0.2)” and the “% drop BPTF” value (BPTF bromodomain [2]; resonance of 9 at 2.6884 ppm) was 46%. For the same compound, the “% drop BPTF” value (BPTF bromodomain [2]; resonance of 9 at 6.98 ppm) was 68%.
